Laboratory results published in the supplement of paper PMC10307832.

What was measured:
Assay in all cases: relative viability (nuclei count vs DMSO), 5 days (fraction); higher = more cells survive
Axitinib + Alpelisib = compound: CNC(=O)c1ccccc1Sc1ccc2c(/C=C/c3ccccn3)n[nH]c2c1 [Axitinib] + Cc1nc(NC(=O)N2CCC[C@H]2C(N)=O)sc1-c1ccnc(C(C)(C)C(F)(F)F)c1 [Alpelisib] (partner 2 µM)
Procedure, shortened: (§1)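 Five library-drug doses in √10 steps were combined with a fixed anchor-drug dose, or a single drug was given alone, by pin tool to lung cancer cell lines in 1536-well plates the day after seeding. Nuclei were stained and counted after 5 days. Relative viability is the nuclei count in treated wells over that in vehicle wells, taken as the median of duplicate plates.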

Axitinib + Vorinostat = compound: CNC(=O)c1ccccc1Sc1ccc2c(/C=C/c3ccccn3)n[nH]c2c1 [Axitinib] + O=C(CCCCCCC(=O)Nc1ccccc1)NO [Vorinostat] (partner 1 µM)
Procedure, shortened: as §1

Bemcentinib + Tozasertib = compound: Nc1nc(Nc2ccc3c(c2)CC[C@@H](N2CCCC2)CC3)nn1-c1cc2c(nn1)-c1ccccc1CCC2 [Bemcentinib] + Cc1cc(Nc2cc(N3CCN(C)CC3)nc(Sc3ccc(NC(=O)C4CC4)cc3)n2)n[nH]1 [Tozasertib] (partner 0.1 µM)
Procedure, shortened: as §1

Bemcentinib + Dasatinib = compound: Nc1nc(Nc2ccc3c(c2)CC[C@@H](N2CCCC2)CC3)nn1-c1cc2c(nn1)-c1ccccc1CCC2 [Bemcentinib] + Cc1nc(Nc2ncc(C(=O)Nc3c(C)cccc3Cl)s2)cc(N2CCN(CCO)CC2)n1 [Dasatinib] (partner 0.075 µM)
Procedure, shortened: as §1

Cell Line | relative viability (Axitinib + Alpelisib; first compound 0.005 µM) | relative viability (Axitinib + Alpelisib; first compound 0.01581 µM) | relative viability (Axitinib + Alpelisib; first compound 0.05 µM) | relative viability (Axitinib + Alpelisib; first compound 0.1581 µM) | relative viability (Axitinib + Alpelisib; first compound 0.5 µM) | relative viability (Axitinib + Vorinostat; first compound 0.005 µM) | relative viability (Axitinib + Vorinostat; first compound 0.01581 µM) | relative viability (Axitinib + Vorinostat; first compound 0.05 µM) | relative viability (Axitinib + Vorinostat; first compound 0.1581 µM) | relative viability (Axitinib + Vorinostat; first compound 0.5 µM) | relative viability (Bemcentinib + Tozasertib; first compound 0.04 µM) | relative viability (Bemcentinib + Tozasertib; first compound 0.1265 µM) | relative viability (Bemcentinib + Tozasertib; first compound 0.4 µM) | relative viability (Bemcentinib + Tozasertib; first compound 1.265 µM) | relative viability (Bemcentinib + Tozasertib; first compound 4 µM) | relative viability (Bemcentinib + Dasatinib; first compound 0.04 µM) | relative viability (Bemcentinib + Dasatinib; first compound 0.1265 µM) | relative viability (Bemcentinib + Dasatinib; first compound 0.4 µM) | relative viability (Bemcentinib + Dasatinib; first compound 1.265 µM) | relative viability (Bemcentinib + Dasatinib; first compound 4 µM)
NCI-H1355 | 0.891 | 0.825 | 0.794 | 0.897 | 0.909 | 0.661 | 0.575 | 0.69 | 0.604 | 0.542 | 0.529 | 0.569 | 0.562 | 0.61 | 0.538 | 0.723 | 0.778 | 0.829 | 0.778 | 0.841
SW 1573 | 0.766 | 0.954 | 0.783 | 0.774 | 0.738 | 0.735 | 0.789 | 0.985 | 0.741 | 0.783 | 0.18 | 0.166 | 0.174 | 0.129 | 0.194 | 0.411 | 0.52 | 0.611 | 0.477 | 0.636
COR-L 105 | 1.08 | 1.2 | 1.02 | 0.932 | 1.18 | 0.958 | 0.794 | 0.874 | 0.825 | 0.818 | 0.306 | 0.358 | 0.317 | 0.336 | 0.345 | 0.317 | 0.328 | 0.329 | 0.404 | 0.272
COR-L23 | 0.77 | 0.857 | 0.78 | 0.83 | 1.06 | 0.516 | 0.478 | 0.502 | 0.452 | 0.586 | 0.232 | 0.167 | 0.225 | 0.211 | 0.183 | 0.414 | 0.531 | 0.55 | 0.359 | 0.482
NCI-H322M | 0.834 | 0.688 | 0.729 | 0.944 | 0.893 | 0.908 | 0.836 | 0.827 | 0.767 | 0.962 | 0.5 | 0.582 | 0.483 | 0.527 | 0.525 | 0.229 | 0.279 | 0.251 | 0.267 | 0.258
NCI-H2347 | 1.12 | 1.17 | 1.05 | 1.01 | 1.01 | 0.638 | 0.55 | 0.513 | 0.664 | 0.619 | 0.56 | 0.602 | 0.525 | 0.593 | 0.72 | 0.322 | 0.288 | 0.327 | 0.269 | 0.308
RERF-LC-KJ | 0.87 | 0.767 | 0.842 | 0.77 | 0.876 | 0.703 | 0.648 | 0.725 | 0.705 | 0.803 | 0.557 | 0.531 | 0.485 | 0.553 | 0.466 | 0.847 | 0.923 | 1.02 | 0.964 | 0.85
NCI-H2228 | 0.884 | 0.699 | 0.798 | 0.677 | 0.964 | 0.818 | 0.618 | 0.605 | 0.506 | 0.885 | 0.182 | 0.249 | 0.216 | 0.251 | 0.271 | 0.14 | 0.566 | 0.532 | 0.526 | 0.538
